The results in this text go back to patent US20070015723A1, “Antiviral oligonucleotides having a conserved G4 core sequence” (priority 1992, published 2007).

“And” between values parts separate entries of the source, which are not always exact repeats. Identical values can stand only once. Strand notation (5' to 3'): a small letter for the sugar, then the base; units joined by * are phosphorothioate-linked, units joined directly phosphodiester-linked; [ ] holds rarer units or linkages, { } end groups; capitals alone tell only the bases. {Fluor} = fluorescein moiety via fluorescein-labeled amidite; d = 2'-deoxy (DNA)

Broadly, the IC50 is the point on the concentration scale where inhibition reaches its midpoint. The low end stands for greater potency, the high end for weaker potency. Broadly, the EC50 is the concentration giving half of the maximal effect.

Data set [1] deals with HIV-1IIIB. Briefly: Acute HIV infection assay (XTT, CEM cells). Conditions: inhibition of HIV. For orientation: Formazan colour is commonly taken as a measure of viable cells.
Data set [2] concerns HSV-1 (KOS). Briefly: HSV-1 infection ELISA assay. Type of data set: cell-based.
For another data set, the system named is human cytomegalovirus. In words: Cytomegalovirus inhibition ELISA assay. Type of data set: cell-based. Conditions: HCMV.
The target of data set [3] is T1, human type II phospholipase A2 (Homo sapiens, UniProt P14555).
T1 sequence (P14555 21-144): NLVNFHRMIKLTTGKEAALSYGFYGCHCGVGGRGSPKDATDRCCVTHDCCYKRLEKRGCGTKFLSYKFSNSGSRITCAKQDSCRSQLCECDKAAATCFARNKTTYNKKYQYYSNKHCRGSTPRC
Briefly: Human type II phospholipase A2 enzyme assay (3H-oleic acid labelled E. coli substrate). The settings on record: 1 μM. Type of data set: biochemical.

Data set [4] relates to HIV-1IIIB.
Data set [5] concerns HSV-1 (KOS). In words: HSV-1 virus yield assay. Conditions: for anti-HSV activity in virus yield assay: FIG. 2. Type of data set: cell-based.
Where [6] appears, read: 50% inhibition of HSV replication relative to control infected cells, Table 1.
Where [7] appears, read: Table 5, two separate experiments.
[8] abbreviates: HSV-1 (KOS strain), Table 9, some in duplicate.

Substance “ISIS 5667: TT GGGG TT GGGG TT, P = O, SEQ ID NO 56 (TTGGGGTTGGGGTT; all phosphodiester, sugars by position not given here)” yielded a TC50 with CEM cell line of 5600 nM. In the data set on HIV-1IIIB [1], this substance yielded an IC50 of more than 22000 nM.
As for “ISIS 4873: CAT GAC CGG GGC, P = S, SEQ ID NO 4 (CATGACCGGGGC; all phosphorothioate, sugars by position and methylation of C not given here)”, the EC50 in the data set with HSV-1 (KOS) [2] (setting [6]) was 1400 nM and 1000 nM. Also, inhibition in the data set with HIV-1IIIB [1] was half-maximal at 1000 nM (IC50).
In the case of “ISIS 5668: TT GGGG TT GGGG, P = O, SEQ ID NO 57 (TTGGGGTTGGGG; all phosphodiester, sugars by position not given here)”, the TC50 with CEM cell line was 5200 nM. In the data set with HIV-1IIIB [1], this substance gave an IC50 of more than 21000 nM.
Turning to “ISIS 4560: GGGG C GGGG C GGGG C GGGG C G, P = S, SEQ ID NO 42 (dG*dG*dG*dG*dC*dG*dG*dG*dG*dC*dG*dG*dG*dG*dC*dG*dG*dG*dG*dC*dG)”, a half-maximal effect with HSV-1 (KOS) [2] (setting [6]) (EC50) was put at 180 nM. Besides, the IC50 in the data set with human cytomegalovirus was 150 nM; in the data set on HIV-1IIIB [1], 140 nM. Also, the “% Inhibition (1 μM)” value in data set [3] (Table 4) is listed as 100%.
“ISIS 5366: TTGGGGTTGGGGTTGGGGTTG GGGG, P = S, SEQ ID NO 33 (TTGGGGTTGGGGTTGGGGTTGGGGG; all phosphorothioate, sugars by position not given here)” showed an EC50 with HSV-1 (KOS) [2] (setting [6]) of 160 nM. The half-maximal inhibitory concentration (IC50) was 100 nM in the data set with human cytomegalovirus; 80 nM and 100 nM in the data set with HIV-1IIIB [1]. The “TI (TC50/IC50)” value in the data set on HIV-1IIIB [4] is 220. In the data set on CEM cell line, this substance showed a TC50 of 22000 nM.
In the data set on HSV-1 (KOS) [2] (setting [6]), “ISIS 5675: TT GGGG TT GGGG TT, P = S, SEQ ID NO 40 (TTGGGGTTGGGGTT; all phosphorothioate, sugars by position not given here)” showed a concentration for a half-maximal effect (EC50) of 420 nM. In addition, the “TI (TC50/IC50)” value in the data set with HIV-1IIIB [4] was 36. The substance also gave a TC50 in the data set on CEM cell line of 14000 nM. Also, the IC50 in the data set with HIV-1IIIB [1] turned out to be 380 nM.
“ISIS 4717: GG GGT TGG GG, P = S, SEQ ID NO 26 (GGGGTTGGGG; all phosphorothioate, sugars by position not given here)” registered an EC50 in the data set with HSV-1 (KOS) [2] (setting [6]) of 600 nM. Also, the values for the IC50 in the data set with human cytomegalovirus and in the data set with HIV-1IIIB [1] were 1000 nM and 410 nM, respectively. Besides, in data set [3] (setting [7]), the “% Inhibition (1 μM)” value came out at 83.1%.
For “ISIS 4694: TA G AAG GGC TCC, P = S, SEQ ID NO 53 (TAGAAGGGCTCC; all phosphorothioate, sugars by position and methylation of C not given here)”, the EC50 in the data set with HSV-1 (KOS) [2] (setting [6]) was more than 3000 nM.
As for “ISIS 4672: GGG T GGG T ATA G, P = S, SEQ ID NO 50 (GGGTGGGTATAG; all phosphorothioate, sugars by position not given here)”, in the data set on HSV-1 (KOS) [2] (setting [6]), the EC50 came out at 200 nM. Further, the “% Inhibition (1 μM)” value in data set [3] (setting [7]) is 73.9% and 94.6%.
“ISIS 5674: TT GGGG TT GGGG, P = S, SEQ ID NO 41 (TTGGGGTTGGGG; all phosphorothioate, sugars by position not given here)” displayed an EC50 in the data set with HSV-1 (KOS) [2] (setting [6]) of 1500 nM. In the data set with CEM cell line, the TC50 was more than 200000 nM. Half-maximal inhibition with HIV-1IIIB [1] (IC50) was put at 430 nM.
“ISIS 4349: GGTTGGAGACCGGGGTTGGG, phosphorothioate, SEQ ID NO 126 (GGTTGGAGACCGGGGTTGGG; antisense; all phosphorothioate, sugars by position and methylation of C not given here)” gave an EC50 in the data set with HSV-1 (KOS) [2] (setting [8]) of 250 nM.
Substance “ISIS 5651: TT GGGG TT GGGG TT GGGG TT GGGG, P = S, SEQ ID NO 35 (TTGGGGTTGGGGTTGGGGTTGGGG; all phosphorothioate, sugars by position not given here)” had an EC50 in the data set with HSV-1 (KOS) [2] (setting [6]) of 170 nM. For the same substance, in the data set with HSV-1 (KOS) [5], the “anti-HSV activity in virus yield assay” value is reported as “dose-dependent anti-HSV activity”. Besides, the “antiviral activity in virus yield assay” value in the data set with HSV-1 (KOS) [5] (dose of 3 mM, FIG. 1) was “greater antiviral activity than did Acyclovir”. Also, the “TI (TC50/IC50)” value in the data set with HIV-1IIIB [4] was 175. Besides, the 50% inhibitory concentration (IC50) with HIV-1IIIB [1] was 100 nM and 180 nM.
In the case of “ISIS 5590: GGGG TT GGGG, P = O, SEQ ID NO 46 (GGGGTTGGGG; all phosphodiester, sugars by position not given here)”, in the data set on HSV-1 (KOS) [2] (setting [6]), the EC50 is more than 3000 nM. The substance also displayed a TC50 in the data set with CEM cell line of 20000 nM. Also, the IC50 with HIV-1IIIB [1] is more than 25000 nM.
Substance “ISIS 5310: GTT GGA GAC CGG GGT TGG GI, Inosine #20, SEQ ID NO 141 (GTT GGA GAC CGG GGTTGG GI; inosine at 20, as printed in the source, key not given here)” came in with an EC50 in the data set on HSV-1 (KOS) [2] (Table 12, inosine-substituted) of 400 nM.
On to “ISIS 4896: GC CGA TGC GGG G, P = S, SEQ ID NO 20 (GCCGATGCGGGG; all phosphorothioate, sugars by position and methylation of C not given here)”, for which the EC50 in the data set with HSV-1 (KOS) [2] (setting [6]) was 1200 nM.
Turning to “ISIS 4895: CGC CGA TGC GGG GCG, P = S, SEQ ID NO 19 (CGCCGATGCGGGGCG; all phosphorothioate, sugars by position and methylation of C not given here)”, the response with HSV-1 (KOS) [2] (setting [6]) was half-maximal at 550 nM (EC50).
Take “ISIS 5676: GGGG TT GGGG TT GGGG, P = S, SEQ ID NO 39 (GGGGTTGGGGTTGGGG; all phosphorothioate, sugars by position not given here)”: the EC50 in the data set with HSV-1 (KOS) [2] (setting [6]) is 230 nM. In addition, the “anti-HSV activity in virus yield assay” value in the data set on HSV-1 (KOS) [5] was “dose-dependent anti-HSV activity”. Also, the “TI (TC50/IC50)” value in the data set on HIV-1IIIB [4] is reported as 114. Further, the IC50 in the data set with HIV-1IIIB [1] is 180 nM and 280 nM.
On to “ISIS 4897: CAC GGG GTC GCC GAT, P = S, SEQ ID NO 31 (CACGGGGTCGCCGAT; all phosphorothioate, sugars by position and methylation of C not given here)”, for which it took 130 nM to reach a half-maximal effect in the data set on HSV-1 (KOS) [2] (setting [6]) (EC50). The substance further yielded an IC50 in the data set on HIV-1IIIB [1] of 430 nM.
As for “ISIS 4889: AGG GGA ATC CGT CAT, P = S, SEQ ID NO 14 (AGGGGAATCCGTCAT; all phosphorothioate, sugars by position and methylation of C not given here)”, a half-maximal response in the data set on HSV-1 (KOS) [2] (setting [6]) (EC50) required 2000 nM.
For “ISIS 4435: GGGGAGACCGAAACCGCAAA, phosphorothioate, SEQ ID NO 130 (GGGGAGACCGAAACCGCAAA; antisense; all phosphorothioate, sugars by position and methylation of C not given here)”, in the data set on HSV-1 (KOS) [2] (setting [8]), the response was half-maximal at 220 nM (EC50).
Consider “ISIS 5653: TT GGGG TT GGGG TT GGGG, P = S, SEQ ID NO 38 (TTGGGGTTGGGGTTGGGG; all phosphorothioate, sugars by position not given here)”, for which the EC50 with HSV-1 (KOS) [2] (setting [6]) worked out at 200 nM. Also, the “anti-HSV activity in virus yield assay” value in the data set with HSV-1 (KOS) [5] is recorded as “dose-dependent anti-HSV activity”. Moreover, the TC50 in the data set with CEM cell line came to 27000 nM. In the data set on HIV-1IIIB [1], this substance came in with an IC50 of 120 nM.
As to “ISIS 5309: GTT GGA GAC CGI GGT TGG GG, Inosine #12, SEQ ID NO 140 (GTT GGA GAC CGI GGTTGG GG; inosine at 12, as printed in the source, key not given here)”, the EC50 with HSV-1 (KOS) [2] (Table 12, inosine-substituted) is more than 3000 nM.
The substance “ISIS 5677: GGGG TT GGGG TT GGGG TT GGGG, P = S, SEQ ID NO 36 (GGGGTTGGGGTTGGGGTTGGGG; all phosphorothioate, sugars by position not given here)” gave an EC50 in the data set with HSV-1 (KOS) [2] (setting [6]) of 200 nM. Also, the “TI (TC50/IC50)” value in the data set on HIV-1IIIB [4] worked out at 146. For the same substance, the IC50 in the data set with HIV-1IIIB [1] was 100 nM and 190 nM.
Consider “ISIS 4393: GGGGTTGGGGAATGAATCCC, phosphorothioate, SEQ ID NO 124 (GGGGTTGGGGAATGAATCCC; antisense; all phosphorothioate, sugars by position and methylation of C not given here)”, for which the concentration giving a half-maximal response (EC50) in the data set with HSV-1 (KOS) [2] (setting [8]) is 200 nM.
Substance “ISIS 4112: GACTGGGGCGAGGTAGGGGT, phosphorothioate, SEQ ID NO 132 (GACTGGGGCGAGGTAGGGGT; antisense; all phosphorothioate, sugars by position and methylation of C not given here)” registered a concentration giving a half-maximal response (EC50) in the data set on HSV-1 (KOS) [2] (setting [8]) of 300 nM.
In turn, “ISIS 5295: GTT GGA GAC CGG GIT TGG GG, Inosine #14, SEQ ID NO 138 (GTT GGA GAC CGG GITTGG GG; inosine at 14, as printed in the source, key not given here)” returned a concentration giving a half-maximal response (EC50) in the data set with HSV-1 (KOS) [2] (Table 12, inosine-substituted) of more than 3000 nM.
As for “ISIS 5339: sequence of 1082 (SEQ ID NO 134) with a fluorescein moiety conjugated to the 5′ end (GCCGAGGTCCATGTCGTACGC; DNA, 5' {Fluor}, backbone not given here)”, a half-maximal effect in the data set with HSV-1 (KOS) [2] (Table 13, fluorescein-conjugated) (EC50) was put at 650 nM.
In turn, “ISIS 4346: GAGGTGGGCTTCGGTGGTGA, phosphorothioate, SEQ ID NO 123 (GAGGTGGGCTTCGGTGGTGA; antisense; all phosphorothioate, sugars by position and methylation of C not given here)” came in with an EC50 with HSV-1 (KOS) [2] (setting [8]) of 500 nM.
Take “ISIS 4671: GGG T GGG T ATA GAA G, P = S, SEQ ID NO 49 (GGGTGGGTATAGAAG; all phosphorothioate, sugars by position not given here)”: in the data set with HSV-1 (KOS) [2] (setting [6]), the EC50 was determined as 400 nM.
